Converted amounts (≈) assume the structure as drawn. Structures can show the parent of a compound that is named as a salt.
Legend:
[1] = tested on: Citrobacter freundii 1982; assay: Antibacterial activity in vitro (MIC) against Citrobacter freundii 1982; type: cell-based; settings: read-out: MIC C. freundii 1982
Method: (§1) The minimum inhibitory concentration in vitro (MIC in μg/ml) of a compound of formula I against Citrobacter freundii 1982 and Staphylococcus aureus 887 is measured and compiled in Table 2.

[2] = tested on: Staphylococcus aureus 887; assay: Antibacterial activity in vitro (MIC) against Staphylococcus aureus 887; type: cell-based; settings: read-out: MIC S. aureus 887
Method: as §1

Compound	MIC [1] [µg/mL]	MIC [2] [µg/mL]
O=CN1C[C@H]2CC(/C=C/c3ccccn3)=C(C(=O)O)N3C(=O)[C@@H]1[C@@H]23 [Example 56, (E)-(1aS,3aR,6bR)-2-Formyl-1-oxo-5-(2-pyridin-2-yl-vinyl)-1a,2,3,3a,4,6b-hexahydro-1H-2,6a-diaza-cyclobut[cd]indene-6-carboxylic acid sodium salt (1:1)]	4	1
O=C(O)C1=C(/C=C/c2ccc3ccccc3n2)C[C@@H]2CN[C@@H]3C(=O)N1[C@H]23 [Example 54, (E)-(1aS,3aR,6bR)-1-Oxo-5-(2-quinolin-2-yl-vinyl)-1a,2,3,3a,4,6b-hexahydro-1H-2,6a-diaza-cyclobut[cd]indene-6-carboxylic acid trifluoroacetate (1:1.5)]	64	64
CC(=O)N1C[C@H]2CC(/C=C/c3ccc(O)cc3)=C(C(=O)O)N3C(=O)[C@@H]1[C@@H]23 [Example 60, (E)-(1aS,3aR,6bR)-2-Acetyl-1-oxo-5-[2-(4-hydroxy-phenyl)-vinyl]-1a,2,3,3a,4,6b-hexahydro-1H-2,6a-diaza-cyclobut[cd]indene-6-carboxylic acid sodium salt (1:1)]	32	2
CC(=O)N1C[C@H]2CC(/C=C/c3ccc[n+](Cc4ccccc4)c3)=C(C(=O)[O-])N3C(=O)[C@@H]1[C@@H]23 [Example 66, (E)-(1aS,3aR,6bR)-2-Acetyl-5-[2-(1-benzyl-pyridin-1-ium-3-yl)-vinyl]-1-oxo-1a,2,3,3a,4,6b-hexahydro-1H-2,6a-diaza-cyclobut[cd]indene-6-carboxylate]	8 (≈ 18.6 µM)	0.25 (≈ 0.582 µM)
CC(=O)N1C[C@H]2CC(/C=C/c3ccccc3)=C(C(=O)O)N3C(=O)[C@@H]1[C@@H]23 [Example 57, (E)-(1aS,3aR,6bR)-2-Acetyl-1-oxo-5-styryl-1a,2,3,3a,4,6b-hexahydro-1H-2,6a-diaza-cyclobut[cd]indene-6-carboxylic acid sodium salt (1:1)]	64	4
CC(=O)N1C[C@H]2CC(/C=C/c3ccccn3)=C(C(=O)O)N3C(=O)[C@@H]1[C@@H]23 [Example 58, (E)-(1aS,3aR,6bR)-2-Acetyl-1-oxo-5-(2-pyridin-2-yl-vinyl)-1a,2,3,3a,4,6b-hexahydro-1H-2,6a-diaza-cyclobut[cd]indene-6-carboxylic acid sodium salt (1:1)]	4	2
CC(=O)N1C[C@H]2CC(/C=C3\CCN(c4ccc[n+](Cc5ccccc5)c4)C3=O)=C(C(=O)[O-])N3C(=O)[C@@H]1[C@@H]23 [Example 39, (E)-(1aS,3aR,6bR)-2-Acetyl-5-[1-(1-benzyl-pyridin-1-ium-3-yl)-2-oxo-pyrrolidin-3-ylidenemethyl]-1-oxo-1a,2,3,3a,4,6b-hexahydro-1H-2,6a-diaza-cyclobut[cd]indene-6-carboxylate acid]	4 (≈ 8.02 µM)	2 (≈ 4.01 µM)
CC(=O)N1C[C@H]2CC(/C=C3\CCN(c4ccc[n+](CC(N)=O)c4)C3=O)=C(C(=O)[O-])N3C(=O)[C@@H]1[C@@H]23 [Example 40, (E)-(1aS,3aR,6bR)-2-Acetyl-5-[1-(1-carbamoylmethyl-pyridin-1-ium-3-yl)-2-oxo-pyrrolidin-3-ylidenemethyl]-1-oxo-1a,2,3,3a,4,6b-hexahydro-1H-2,6a-diaza-cyclobut[cd]indene-6-carboxylate]	4 (≈ 8.59 µM)	2 (≈ 4.3 µM)
O=C(O)C1=C(/C=C/c2ccncc2)C[C@@H]2CN[C@@H]3C(=O)N1[C@H]23 [Example 51, (E)-(1aS,3aR,6bR)-1-Oxo-5-(2-pyridin-4-yl-vinyl)-1a,2,3,3a,4,6b-hexahydro-1H-2,6a-diaza-cyclobut[cd]indene-6-carboxylic acid trifluoroacetate (1:1.45)]	64	4
O=C(O)C1=C(/C=C/c2ccccn2)C[C@@H]2CN(C(=O)C(F)(F)F)[C@@H]3C(=O)N1[C@H]23 [Example 64, (E)-(1aS,3aR,6bR)-1-Oxo-5-(2-pyridin-2-yl-vinyl)-2-trifluoroacetyl-1a,2,3,3a,4,6b-hexahydro-1H-2,6a-diaza-cyclobut[cd]indene-6-carboxylic acid sodium salt (1:1)]	32	2
CC(=O)N1C[C@H]2CC(/C=C/c3cccnc3)=C(C(=O)O)N3C(=O)[C@@H]1[C@@H]23 [Example 62, (E)-(1aS,3aR,6bR)-2-Acetyl-1-oxo-5-(2-pyridin-3-yl-vinyl)-1a,2,3,3a,4,6b-hexahydro-1H-2,6a-diaza-cyclobut[cd]indene-6-carboxylic acid sodium salt (1:1)]	8	2
CC(=O)N1C[C@H]2CC(/C=C/c3ccc4ccccc4n3)=C(C(=O)O)N3C(=O)[C@@H]1[C@@H]23 [Example 61, (E)-(1aS,3aR,6bR)-2-Acetyl-1-oxo-5-(2-quinolin-2-yl-vinyl)-1a,2,3,3a,4,6b-hexahydro-1H-2,6a-diaza-cyclobut[cd]indene-6-carboxylic acid sodium salt (1:1)]	64	64
CC(=O)N1C[C@H]2CC(/C=C/c3ccncc3)=C(C(=O)O)N3C(=O)[C@@H]1[C@@H]23 [Example 59, (E)-(1aS,3aR,6bR)-2-Acetyl-1-oxo-5-(2-pyridin-4-yl-vinyl)-1a,2,3,3a,4,6b-hexahydro-1H-2,6a-diaza-cyclobut[cd]indene-6-carboxylic acid sodium salt (1:1)]	32	1
CC(=O)N1C[C@H]2CC(/C=C3\CCN(c4cccc([N+](=O)[O-])c4)C3=O)=C(C(=O)O)N3C(=O)[C@@H]1[C@@H]23 [Example 30, (E)-(1aS,3aR,6bR)-2-Acetyl-1-oxo-5-[1-(3-nitrophenyl)-2-oxo-pyrrolidin-3-ylidenemethyl]-1a,2,3,3a,4,6b-hexahydro-1H-2,6a-diaza-cyclobut[cd]indene-6-carboxylic acid sodium salt (1:1)]	4	1
CC(=O)N1C[C@H]2CC(/C=C/c3ccc[n+](Cc4ccc(OC(F)(F)F)cc4)c3)=C(C(=O)[O-])N3C(=O)[C@@H]1[C@@H]23 [Example 71]	64 (≈ 125 µM)	0.5 (≈ 0.974 µM)

Other lines, results leading:

MIC [1] [µg/mL]	MIC [2] [µg/mL]	Compound
8	2	CC(=O)N1C[C@H]2CC(/C=C3\CCN(Cc4ccc([N+](=O)[O-])cc4)C3=O)=C(C(=O)O)N3C(=O)[C@@H]1[C@@H]23 [Example 26, (E)-(1aS,3aR,6bR)-2-Acetyl-1-oxo-5-[2-oxo-1-(4-nitro-benzyl)-pyrrolidin-3-ylidenemethyl]-1a,2,3,3a,4,6b-hexahydro-1H-2,6a-diaza-cyclobut[cd]indene-6-carboxylic acid sodium salt (1:1)]
1	4	CC(=O)N1C[C@H]2CC(/C=C3\CCN(CC(F)(F)F)C3=O)=C(C(=O)O)N3C(=O)[C@@H]1[C@@H]23 [Example 25, (E)-(1aS,3aR,6bR)-2-Acetyl-1-oxo-5-[2-oxo-1-(2,2,2-trifluoroethyl)-pyrrolidin-3-ylidenemethyl]-1a,2,3,3a,4,6b-hexahydro-1H-2,6a-diaza-cyclobut[cd]indene-6-carboxylic acid sodium salt (1:1)]
16	4	O=C(O)C1=C(/C=C2\CCN(c3cccnc3)C2=O)C[C@@H]2CN(C(=O)C(F)(F)F)[C@@H]3C(=O)N1[C@H]23 [Example 38, (E)-(1aS,3aR,6bR)-1-Oxo-5-[2-oxo-1-pyridin-3-yl-pyrrolidin-3-ylidenemethyl]-2-trifluoroacetyl-1a,2,3,3a,4,6b-hexahydro-1H-2,6a-diaza-cyclobut[cd]indene-6-carboxylic acid sodium salt (1:1)]
1	1	CC(=O)N1C[C@H]2CC(/C=C3\CCN(c4ccc(O)cc4)C3=O)=C(C(=O)O)N3C(=O)[C@@H]1[C@@H]23 [Example 24, (E)-(1aS,3aR,6bR)-2-Acetyl-1-oxo-5-[2-oxo-1-(4-hydroxyphenyl)-pyrrolidin-3-ylidenemethyl]-1a,2,3,3a,4,6b-hexahydro-1H-2,6a-diaza-cyclobut[cd]indene-6-carboxylic acid sodium salt (1:1)]
8	16	O=C(O)C1=C(/C=C2\CCN(CC(F)(F)F)C2=O)C[C@@H]2CN[C@@H]3C(=O)N1[C@H]23 [Example 14, (E)-(1aS,3aR,6bR)-1-Oxo-5-[2-oxo-1-(2,2,2-trifluoro-ethyl)-pyrrolidin-3-ylidenemethyl]-1a,2,3,3a,4,6b-hexahydro-1H-2,6a-diaza-cyclobut[cd]indene-6-carboxylic acid trifluoroacetate (1:1)]
16	16	NC(=O)c1ccc(NC(=O)N2C[C@H]3CC(/C=C4\CCN(CC(F)(F)F)C4=O)=C(C(=O)O)N4C(=O)[C@@H]2[C@@H]34)cc1 [Example 23, (E)-(1aS,3aR,6bR)-2-(4-Carbamoyl-phenylcarbamoyl)-1-oxo-5-[2-oxo-1-(2,2,2-trifluoroethyl)-pyrrolidin-3-ylidenemethyl]-1a,2,3,3a,4,6b-hexahydro-1H-2,6a-diaza-cyclobut[cd]indene-6-carboxylic acid sodium salt (1:1)]
4	2	CC(=O)N1C[C@H]2CC(/C=C3\CCN(Cc4cccs4)C3=O)=C(C(=O)O)N3C(=O)[C@@H]1[C@@H]23 [Example 27, (E)-(1aS,3aR,6bR)-2-Acetyl-1-oxo-5-[2-oxo-1-(thiophen-2-ylmethyl)-pyrrolidin-3-ylidenemethyl]-1a,2,3,3a,4,6b-hexahydro-1H-2,6a-diaza-cyclobut[cd]indene-6-carboxylic acid sodium salt (1:1)]
1	2	CC(=O)N1C[C@H]2CC(/C=C3\CCN(c4cccnc4)C3=O)=C(C(=O)O)N3C(=O)[C@@H]1[C@@H]23 [Example 33, (E)-(1aS,3aR,6bR)-2-Acetyl-1-oxo-5-[2-oxo-1-pyridin-3-yl-pyrrolidin-3-ylidenemethyl]-1a,2,3,3a,4,6b-hexahydro-1H-2,6a-diaza-cyclobut[cd]indene-6-carboxylic acid sodium salt (1:1)]

From patent US6218379A, “Tricyclic carbacephems” (Hoffmann-la Roche Inc., priority 1996, dated 2001)
